From patent publication US20080058339A1, “New compounds” (Biovitrum, priority 2006, published 2008)

Target: T1, human GPR119 receptor (Homo sapiens, UniProt Q8TDV5)
T1 construct: expressed in transfected cells
T1 sequence (Q8TDV5 1-335): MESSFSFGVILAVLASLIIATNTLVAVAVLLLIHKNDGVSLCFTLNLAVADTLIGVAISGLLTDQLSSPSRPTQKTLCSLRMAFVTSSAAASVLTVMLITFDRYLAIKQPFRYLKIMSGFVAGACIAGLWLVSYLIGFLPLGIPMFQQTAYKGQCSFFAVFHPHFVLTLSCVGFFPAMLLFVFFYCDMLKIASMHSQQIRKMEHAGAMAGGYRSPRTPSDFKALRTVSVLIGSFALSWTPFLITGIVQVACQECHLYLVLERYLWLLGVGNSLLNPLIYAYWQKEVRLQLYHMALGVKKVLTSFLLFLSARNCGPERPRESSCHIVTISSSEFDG
Experiment: Human GPR119 activity assay (cAMP HTRF in HEK293-hGPR119 cells)
Type: cell-based
Settings: cAMP stimulation in HEK293 cells stably expressing human GPR119, 20 min incubation, read-out: Agonist potency at the human GPR119, EC50
Method: Human GPR119 Activity Assay
Agonists to the human GPR119 receptor were characterized by measuring human GPR119 receptor-mediated stimulation of cyclic AMP (cAMP) in HEK 293 cells expressing the human GPR119 receptor.
Briefly, cAMP content was determined using a cAMP kit based on HTRF technology (Homogeneous Time-Resolved Fluorescence, Cisbio Cat. no. 62AM2PEC). HEK293 cells stably expressing the human GPR119 receptor (HEK293-hGPR119 cells) were cultured in DMEM (Gibco #31966-021) supplemented with 10% Bovine Calf Serum (Hyclone #SH30072.03), and, 500 μg/mL Hygromycin B (Roche Diagnostics 843555). At 80% confluency, cells were detached using Trypsine and aliquoted at a density of 5×10^6 cells/mL in freezing medium (DMEM (Gibco # 31966-021), 20% BCS (Hyclone #SH30072.03), 10% DMSO (Sigma #D2650) and stored at −135° C. On the experimental day, HEK293-hGPR119 cells were thawn and diluted to 0.4×10^6 cells/mL in assay buffer (1×HBSS (Gibco Cat. no. 14025-049), 20 mM Hepes (Gibco Cat. no. 15630-056), 0.1% BSA, pH 7.4) and incubated with test substances for 20 min at room temperature. After addition of HTRF reagents diluted in lysis buffer, the 96- or 384-well plates were incubated 1 hour, followed by measuring the fluorescence ratio at 665 nm/620 nm. […]

CC(C)(C)OC(=O)N1CCC(COc2ccc(-c3ccc(S(C)(=O)=O)cc3)nn2)CC1 [Example A1, tert-Butyl 4-[({6-[4-(methylsulfonyl)phenyl]pyridazin-3-yl}oxy)methyl]piperidine-1-carboxylate]
EC50: 46 nM

CCN(Cc1ccc(-c2ccc(S(C)(=O)=O)cc2)nn1)C1CCN(C(=O)OC(C)(C)C)CC1 [Example A4, tert-Butyl 4-[ethyl({6-[4-(methylsulfonyl)phenyl]pyridazin-3-yl}methyl)amino]-piperidine-1-carboxylate]
EC50: 83 nM
